Measurements reported in patent US11534438B2, “Composition containing piperacillin, pharmaceutical formulation thereof and use thereof” (priority 2017, dated 2022).
Read-outs that look alike come from different tables or passages of the source.

Legend:
A. baumannii = conditions: it is reported; cited from earlier work
[1] = system: CPZ/S-R (a cefoperazone-sulbactam-resistant strain of A. baumannii); experiment: Animal protection experiment, mice infected with CPZ/S-R; type: in vivo; conditions: Acinetobacter baumannii, read-out: ED50 for animals infected with A. baumannii, CPZ/S-R a cefoperazone-sulbactam resistant A. baumannii
Experimental: (§1) Tested animals were ICR mice. Tested bacterial strains were ATCC19606 (a standard strain of A. baumannii), CBP-R (a carbapenem-resistant strain of A. baumannii), and CPZ/S-R (a cefoperazone-sulbactam-resistant strain of A. baumannii). Among them, the standard strain was obtained from ATCC, and the other strains were clinically isolated.
Determining the dose ranges of the tested samples: The tested strains were diluted with 5% high active dry yeast to obtain bacterial dilutions of different concentrations (10^−1, 10^−2, 10^−3, and 10^−4), and then intraperitoneally injected into the tested animals in 0.5 ml/mice. The number of dead mice after infection was recorded. The minimum bacterial dose, which kills 100% members of the mice, was recorded as 1 MLD. The mice were infected with 1 MLD of bacteria which was formulated with 5% high active dry yeast Immediately and 6 hours after the infection, a preliminary experiment was carried out with high, median and low dosages of the tested samples, and the survival numbers of the mice after infection were recorded. […]
Animal protection experiment: After fasting with water only for 18 h, the mice (half male and female, 25-30 g body weight) were randomly divided into: (1) ATCC19606 group, (2) CBP-R group, and (3) CPZ/S-R group. […] The animals were observed continuously for 7 days, and the death of animals in each group was recorded. […]

[2] = system: ATCC19606 (a standard strain of A. baumannii); experiment: Animal protection experiment, mice infected with ATCC19606; type: in vivo, Acinetobacter baumannii; conditions: for ED50: Acinetobacter baumannii; for inhibitory effect on the standard strain of A. baumannii without drug resistance (in words): infected ICR mice, summary of Table 1
Experimental: as §1
(§2) Determining the dose ranges of the tested samples: The tested strains were diluted with 5% high active dry yeast to obtain bacterial dilutions of different concentrations (10^−1, 10^−2, 10^−3, and 10^−4), and then intraperitoneally injected into the tested animals in 0.5 ml/mice. The number of dead mice after infection was recorded. The minimum bacterial dose, which kills 100% members of the mice, was recorded as 1 MLD. The mice were infected with 1 MLD of bacteria which was formulated with 5% high active dry yeast Immediately and 6 hours after the infection, a preliminary experiment was carried out with high, median and low dosages of the tested samples, and the survival numbers of the mice after infection were recorded. Based on the results of the preliminary experiment, the administration dosages of the tested samples were designed for the animal protection experiment.
(§3) Animal protection experiment: After fasting with water only for 18 h, the mice (half male and female, 25-30 g body weight) were randomly divided into: (1) ATCC19606 group, (2) CBP-R group, and (3) CPZ/S-R group. Each group was treated with five concentrations of the samples, and included 10 animals. In addition, 10 animals were incorporated as a control group. Each mouse was intraperitoneally injected with 0.5 ml of 1 MLD bacterial solution to establish an infection model. At 0 h and 6 h after infection, the mice were subcutaneously injected with different concentrations of the tested samples, 0.2 ml/mice, and the mice of the control group were injected with the same volume of sterilized water. The animals were observed continuously for 7 days, and the death of animals in each group was recorded. The 50% effective dose (ED50) of each tested sample was calculated by the Bliss method. Smaller ED50 means that the tested sample has better anti-bacterial effect in vivo, and better protective effect on the experimental animals.

[3] = system: CBP-R (a carbapenem-resistant strain of A. baumannii); experiment: Animal protection experiment, mice infected with CBP-R; type: in vivo, Acinetobacter baumannii; conditions: for ED50: Acinetobacter baumannii, read-out: ED50 for animals infected with A. baumannii, CBP-R a carbapenem-resistant A. baumannii; for inhibitory / anti-bacterial effect on drug-resistant strains of A. baumannii (in words): infected ICR mice, drug-resistant strains (CBP-R and CPZ/S-R), summary of Table 1
Experimental: as §1, §2, §3

[4] = ICR mice, 1 MLD i.p. infection, s.c. dosing at 0 h and 6 h, 7 days observation, Bliss method

Structure (SMILES) | resistance rate of A. baumannii (A. baumannii) | ED50 [1, 4] | ED50 ([2]; ATCC19606, ICR mice, 1 MLD i.p. infection, s.c. dosing at 0 h and 6 h, 7 days observation, Bliss method, read-out: ED50 for animals infected with A. baumannii, ATCC19606 a standard strain) | inhibitory effect on the standard strain of A. baumannii without drug resistance (in words) [2] | ED50 [3, 4] | inhibitory / anti-bacterial effect on drug-resistant strains of A. baumannii (in words) [3] | ED50 [1] | ED50 ([2]; ATCC19606, read-out: ED50 for animals infected with A. baumannii, ATCC19606 a standard strain) | ED50 [3]
CCN1CCN(C(=O)N[C@@H](C(=O)N[C@@H]2C(=O)N3[C@@H]2SC(C)(C)[C@@H]3C(=O)O)c2ccccc2)C(=O)C1=O [piperacillin] | over 70% |  |  |  |  |  |  |  | 
C[C@@H](O)[C@H]1C(=O)N2C(C(=O)O)=C(S[C@@H]3CN[C@H](C(=O)N(C)C)C3)[C@H](C)[C@H]12 [Meropenem] |  | 100 to 200 mg/kg | < 20 mg/kg | more advantageous in pharmaceutical efficacy | > 200 mg/kg | significantly decreased inhibitory effect |  |  | 
CC1(C)[C@H](C(=O)O)N2C(=O)C[C@H]2S1(=O)=O [Sulbactam, (2S,5R)-3,3-dimethyl-7-oxo-4-thia-1-azabicyclo[3.2.0]heptane-2-carboxylic acid-4,4-dioxide] |  |  |  | more advantageous in pharmaceutical efficacy |  | significantly decreased inhibitory effect | > 200 mg/kg | < 20 mg/kg | 100 to 200 mg/kg
